Measured values as given in patent US20240246968A1, “SMALL MOLECULE INHIBITORS OF KRAS G12C MUTANT” (Merck Sharp & Dohme LLC, priority 2021, published 2024).

Experiments:
[1] = molecular target: Gppcp-bound recombinant K-Ras4B G12C mutant protein (amino acids 1-169, C51S/C80L/C118S) (Homo sapiens, UniProt P01116, C118S/C51S/C80L/G12C); experiment: KRASG12C binding assay (LC-MS, compound binding rate); settings: test compound final concentration 0.5 μM, 25° C., 1 hour
In short: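 Covalent adduct formation measured by deconvoluted intact-mass LC-MS after 1 h at 25 °C with compound at 0.5 μM final and 50 nM Gppcp-loaded KRAS G12C (residues 1-169, C51S/C80L/C118S). Buffer: TBS, 0.1 mM TCEP, 0.25 mM MgCl2, 50 μM Gppcp. Binding % = one-molecule adduct/(unbound + all adducts), binned A ≥80, B 60–80, C 40–60, D 20–40, E <20.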

[2] = molecular target: T1, interaction between recombinant K-Ras4B G12C mutant protein and cRAF RAS-binding domain (cRAF-RBD) (Homo sapiens, UniProt P01116, G12C); experiment: Inhibitory activity on interaction between KRAS G12C and cRAF (Alpha technology); type: biochemical; settings: GMPPNP-bound KRAS G12C incubated with compound at 25° C. for 1 hour, then cRAF-RBD; Alpha signal
T1 construct: made in house; host or cells: E. coli
In short: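 Alpha readout of cRAF-RBD (aa 50-132) binding to KRAS G12C (aa 1-169) after 1.5 h RT, following 1 h, 25° C compound preincubation with GMPPNP-bound protein (pH 7.5 Tris, 1 mM MgCl2, TCEP, Tween 20). IC50 fitted from titrations, with GDP-bound KRAS as 100% and DMSO as 0% inhibition.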

MIA PaCa-2 cells = experiment: Growth inhibition activity on KRAS-G12C mutant cell line (MIA PaCa-2), CellTiter-Glo 3D; type: cell-based, human; settings: MIA PaCa-2, 3-day culture with compound
In short: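 Luminescence readout (CellTiter-Glo 3D) after 3 days of compound treatment at 37 °C, 5% CO2, 0.2% final DMSO, gave % growth inhibition versus no-compound wells, from which IC50 (nM) was derived; cells had been plated in 10% FBS RPMI1640 one day before dosing.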

Compound | IC50 [2] | IC50 (MIA PaCa-2 cells) | IC50 (MIA PaCa-2 cells; Homo sapiens, MIA PaCa-2, 72 h) | binding rate [1]
COc1cc2c(nc(C)n2C)c(Cl)c1-c1cccn2c(C(=O)c3cc(F)c(NC(=O)/C=C/CN[C@H]4CC[C@H](OC)CC4)c(F)c3)ccc12 (single isomer, unassigned) [Example 35-1, (E)-N-(4-(8-(4-chloro-6-methoxy-1,2-dimethyl-1H-benzo[d]imidazol-5-yl)indolizine-3-carbonyl)-2,6-difluorophenyl)-4-(((1r,4r)-4-methoxycyclohexyl)amino)but-2-enamide] | 29 nM | 35 nM | – | A (A binding rate of 80% or more is rated “A”)
COc1cc2c(nc(C)n2C)c(Cl)c1-c1cccn2c(C(=O)c3cc(F)c(NC(=O)/C=C/CN[C@H]4CC[C@H](OC)CC4)c(F)c3)ccc12 (single isomer, unassigned) [Example 35-2, (E)-N-(4-(8-(4-chloro-6-methoxy-1,2-dimethyl-1H-benzo[d]imidazol-5-yl)indolizine-3-carbonyl)-2,6-difluorophenyl)-4-(((1r,4r)-4-methoxycyclohexyl)amino)but-2-enamide] | 53 nM | 73 nM | – | A (A binding rate of 80% or more is rated “A”)
CO[C@H](C)c1nc2c(Cl)c(-c3cccn4c(C(=O)c5cc(F)c(NC(=O)/C=C/CN[C@H]6CC[C@H](OC)CC6)c(F)c5)ccc34)c(C)cc2n1C (single isomer, unassigned) [Example 47] | 16 nM | 75 nM | – | A (A binding rate of 80% or more is rated “A”)
CO[C@H](C)c1nc2c(Cl)c(-c3cccn4c(C(=O)c5cc(F)c(NC(=O)/C=C/CN[C@H]6CC[C@H](OC)CC6)c(F)c5)ccc34)c(C)cc2n1C (single isomer, unassigned) [Example 48] | 110 nM | 230 nM | – | A (A binding rate of 80% or more is rated “A”)
CO[C@H](C)c1nc2c(Cl)c(-c3cccn4c(C(=O)c5cc(F)c(NC(=O)/C=C/CNC(C)(C)C)c(F)c5)ccc34)c(C)cc2n1C (single isomer, unassigned) [Example 49] | 19 nM | 49 nM | – | A (A binding rate of 80% or more is rated “A”)
CO[C@H](C)c1nc2c(Cl)c(-c3cccn4c(C(=O)c5cc(F)c(NC(=O)/C=C/CNC(C)(C)C)c(F)c5)ccc34)c(C)cc2n1C (single isomer, unassigned) [Example 50] | 250 nM | 220 nM | – | A (A binding rate of 80% or more is rated “A”)

Continued, in another order:

IC50 [2] | IC50 (MIA PaCa-2 cells) | IC50 (MIA PaCa-2 cells; Homo sapiens, MIA PaCa-2, 72 h) | Compound | binding rate [1]
40 nM | 24 nM | – | COc1cc2c(nc(C)n2C)c(Cl)c1-c1cccn2c(C(=O)c3cc(F)c(NC(=O)/C=C/CNC(C)(C)C)c(F)c3)ccc12 (single isomer, unassigned) [Example 36-1, (E)-4-(tert-butylamino)-N-(4-(8-(4-chloro-6-methoxy-1,2-dimethyl-1H-benzo[d]imidazol-5-yl)indolizine-3-carbonyl)-2,6-difluorophenyl)but-2-enamide] | B (a binding rate of 60% or more and less than 80% is rated “B”)
56 nM | 60 nM | – | COc1cc2c(nc(C)n2C)c(Cl)c1-c1cccn2c(C(=O)c3cc(F)c(NC(=O)/C=C/CNC(C)(C)C)c(F)c3)ccc12 (single isomer, unassigned) [Example 36-2, (E)-4-(tert-butylamino)-N-(4-(8-(4-chloro-6-methoxy-1,2-dimethyl-1H-benzo[d]imidazol-5-yl)indolizine-3-carbonyl)-2,6-difluorophenyl)but-2-enamide] | A (A binding rate of 80% or more is rated “A”)
580 nM | 350 nM | – | COc1c(-c2cccn3c(C(=O)c4cc(F)c(NC(=O)/C=C/CN[C@H]5CC[C@H](OC)CC5)c(F)c4)ccc23)c(C)cc2c1nc(C)n2C (single isomer, unassigned) [Example 39-1, (E)-N-(2,6-difluoro-4-(8-(4-methoxy-1,2,6-trimethyl-1H-benzo[d]imidazol-5-yl)indolizine-3-carbonyl)phenyl)-4-(((1r,4r)-4-methoxycyclohexyl)amino)but-2-enamide] | A (A binding rate of 80% or more is rated “A”)
32 nM | 44 nM | – | COc1c(-c2cccn3c(C(=O)c4cc(F)c(NC(=O)/C=C/CN[C@H]5CC[C@H](OC)CC5)c(F)c4)ccc23)c(C)cc2c1nc(C)n2C (single isomer, unassigned) [Example 39-2, (E)-N-(2,6-difluoro-4-(8-(4-methoxy-1,2,6-trimethyl-1H-benzo[d]imidazol-5-yl)indolizine-3-carbonyl)phenyl)-4-(((1r,4r)-4-methoxycyclohexyl)amino)but-2-enamide] | A (A binding rate of 80% or more is rated “A”)
340 nM | 340 nM | – | COc1c(-c2cccn3c(C(=O)c4cc(F)c(NC(=O)/C=C/CNC(C)(C)C)c(F)c4)ccc23)c(C)cc2c1nc(C)n2C (single isomer, unassigned) [Example 40-1] | A (A binding rate of 80% or more is rated “A”)
21 nM | 73 nM | – | COc1c(-c2cccn3c(C(=O)c4cc(F)c(NC(=O)/C=C/CNC(C)(C)C)c(F)c4)ccc23)c(C)cc2c1nc(C)n2C (single isomer, unassigned) [Example 40-2] | A (A binding rate of 80% or more is rated “A”)
52 nM | – | 32 nM | COc1cc2c(ncn2C)c(Cl)c1-c1cccn2c(C(=O)c3cc(F)c(NC(=O)/C=C/CN[C@H]4CC[C@H](OC)CC4)c(F)c3)ccc12 (single isomer, unassigned) [Example 41-1, (E)-N-(4-(8-(4-chloro-6-methoxy-1-methyl-1H-benzo[d]imidazol-5-yl)indolizine-3-carbonyl)-2,6-difluorophenyl)-4-(((1r,4r)-4-methoxycyclohexyl)amino)but-2-enamide] | A (A binding rate of 80% or more is rated “A”)
74 nM | 50 nM | – | COc1cc2c(ncn2C)c(Cl)c1-c1cccn2c(C(=O)c3cc(F)c(NC(=O)/C=C/CN[C@H]4CC[C@H](OC)CC4)c(F)c3)ccc12 (single isomer, unassigned) [Example 41-2, (E)-N-(4-(8-(4-chloro-6-methoxy-1-methyl-1H-benzo[d]imidazol-5-yl)indolizine-3-carbonyl)-2,6-difluorophenyl)-4-(((1r,4r)-4-methoxycyclohexyl)amino)but-2-enamide] | A (A binding rate of 80% or more is rated “A”)
450 nM | 1100 nM | – | Cc1nc2c(Cl)c(-c3cccn4c(C(=O)c5cc(F)c(NC(=O)/C=C/CNC(C)(C)C)c(F)c5)ccc34)c(C(F)(F)F)cc2n1C (single isomer, unassigned) [Example 56-1, (E)-4-(tert-butylamino)-N-(4-(8-(4-chloro-1,2-dimethyl-6-(trifluoromethyl)-1H-benzo[d]imidazol-5-yl)indolizine-3-carbonyl)-2,6-difluorophenyl)but-2-enamide] | A (A binding rate of 80% or more is rated “A”)
21 nM | 29 nM | – | Cc1nc2c(Cl)c(-c3cccn4c(C(=O)c5cc(F)c(NC(=O)/C=C/CNC(C)(C)C)c(F)c5)ccc34)c(C(F)(F)F)cc2n1C (single isomer, unassigned) [Example 56-2, (E)-4-(tert-butylamino)-N-(4-(8-(4-chloro-1,2-dimethyl-6-(trifluoromethyl)-1H-benzo[d]imidazol-5-yl)indolizine-3-carbonyl)-2,6-difluorophenyl)but-2-enamide] | A (A binding rate of 80% or more is rated “A”)
43 nM | 20 nM | – | Cc1nc2c(Cl)c(-c3cccn4c(C(=O)c5cc(F)c(NC(=O)/C=C/CNC6CCOCC6)c(F)c5)ccc34)c(C(F)(F)F)cc2n1C (single isomer, unassigned) [Example 57-1, (E)-N-(4-(8-(4-chloro-1,2-dimethyl-6-(trifluoromethyl)-1H-benzo[d]imidazol-5-yl)indolizine-3-carbonyl)-2,6-difluorophenyl)-4-((tetrahydro-2H-pyran-4-yl)amino)but-2-enamide] | A (A binding rate of 80% or more is rated “A”)
790 nM | 1100 nM | – | Cc1nc2c(Cl)c(-c3cccn4c(C(=O)c5cc(F)c(NC(=O)/C=C/CNC6CCOCC6)c(F)c5)ccc34)c(C(F)(F)F)cc2n1C (single isomer, unassigned) [Example 57-2, (E)-N-(4-(8-(4-chloro-1,2-dimethyl-6-(trifluoromethyl)-1H-benzo[d]imidazol-5-yl)indolizine-3-carbonyl)-2,6-difluorophenyl)-4-((tetrahydro-2H-pyran-4-yl)amino)but-2-enamide] | A (A binding rate of 80% or more is rated “A”)
